Data set [1] relates to Blattella germanica (males, susceptible). As to the kind of experiment: Efficacy of EC formulations on glazed/unglazed tiles, continuous exposure. The format is in vivo. As to conditions: EC formulation. The method, then:
All surfaces were provided with talcum-coated glass rings (diameter 9.5 cm, height 5.5 cm) one day later.
The test insects were anesthetized with CO2, 20 individuals were placed onto the treated surfaces and the glass ring was covered with wire gauze ring. […]
Each test consisted of at least one replicate and any additional replicates are noted. […]
Test Insects: Culex quinquefasciatus (adults, susceptible) (3 minutes exposure time according to USDA Petri Dish Method), Musca domestica (adults, susceptible and resistant), Blattella germanica (males, susceptible) (both: continuous exposure time)
Formulations: Insecticide with or without 10% Compound A (as EC), to be diluted with water (1 part formulation+9 parts water)
Application: 1 ml of the diluted formulations was applied by pipette onto glazed tiles (15×15 cm)
Evaluation: Knock down after 3, 9 (mosquitoes only), 15, and 30 minutes, 1, 2, 3, 4 and 24 hours (mortality)

For data set [2], the system named is tropical house mosquito Culex quinquefasciatus (adults, 3 days old). The data set can be described thus: Efficacy of formulations on surfaces (glazed/unglazed tiles, plywood), ten 3 day old mosquitoes, 3 min exposure. The format is in vivo. As to conditions: EC formulation, 3 minutes exposure. In outline:
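Test agents in acetone, 1 ml pipetted onto 15×15 cm glazed tiles (plywood/unglazed tiles also used; 1 cm edge untreated). USDA Petri Dish Method: ten 3-day-old adults held 3 min under a perforated dish, then given a water-soaked cotton pad. Knock-down scored 3 min–4 h, mortality at 24 h; mean of three batches.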

The test system of data set [3] is Argentine ant, Linepithema humile. The data set can be described thus: Knockdown/mortality of ant workers under continuous exposure on treated glazed tile. As to conditions: glazed tile. The gist of the method: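 0.5% AI imidacloprid in acetone, alone or with 0.1, 1.0 or 5.0% additive (benzenepropanoic acid, oleic acid, methyl oleate, methyl linoleate, methyl palmitate or BHA), 1 ml dried overnight on glazed tile (~161 cm^2). Ten workers confined under continuous exposure, water from 3 h; knockdown/mortality scored at intervals and 24 h; ≥3 replicates.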

The test system of data set [4] is susceptible/normal German cockroach (Monheim strain), Blattella germanica. As to the kind of experiment: Knockdown/mortality of male cockroaches under continuous exposure on treated glazed tile. Type of data set: in vivo. As to conditions: Table 32, aqueous deltamethrin/adjuvant, glazed tile, Monheim strain. In outline: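 Male cockroaches continuously exposed on treated glazed tile, dried overnight before exposure; at least three replicates. Knockdown/mortality scored at intervals from 5 or 10 min, over runs lasting 20 min to 24 h depending on test.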

[5] abbreviates: 0.1% = 50 mg Bendiocarb/m^2 on glazed tiles.
Where [6] appears, read: 0.1% = 50 mg imidacloprid/m^2 on glazed tiles.
Where [7] appears, read: Table 4 (Ex. 1), continuous exposure.
Where [8] appears, read: Table 7 (Ex. 4), continuous exposure.
Setting [9] is: Table 8 (Ex. 5), continuous exposure.
[10] abbreviates: Table 10 (Ex. 7), continuous exposure.
Setting [11] is: Table 12 (Ex. 9), continuous exposure.
Where [12] appears, read: Table 14 (Ex. 11), continuous exposure.
The mark [13] stands for this setting: Table 16 (Ex. 13), continuous exposure.
Where [14] appears, read: Table 19 (Ex. 16), continuous exposure.
Setting [15] is: Table 20 (Ex. 17), continuous exposure.

`CNC(=O)Oc1cccc2c1OC(C)(C)O2` [bendiocarb]: in data set [1] (setting [5]), the “% KD and Mortality 15′” value is reported as 0%; the “% KD and Mortality 30′” value turned out to be 40%; the “% KD and Mortality 1 h” value stood at 60%; the “% KD and Mortality 2 h” value is 60%. In data set [1] (setting [5]), the “% KD and Mortality 3 h” value is recorded as 80%; the “% KD and Mortality 4 h” value was 80%; the “% KD and Mortality 6 h” value turned out to be 80%; the “% KD and Mortality 24 h” value is recorded as 80%. Besides, in data set [2] (setting [5]), the “% KD and Mortality 15′” value was 0%; the “% KD and Mortality 30′” value was determined as 0%; the “% KD and Mortality 1 h” value was found to be 80%; the “% KD and Mortality 2 h” value turned out to be 100%. In addition, in data set [2] (setting [5]), the “% KD and Mortality 3 h” value is given as 100%; the “% KD and Mortality 4 h” value turned out to be 100%; the “% KD and Mortality 6 h” value was found to be 100%; the “% KD and Mortality 24 h” value is 100%.

As for `CC1(C)[C@H](C(=O)O[C@H](C#N)c2cccc(Oc3ccccc3)c2)[C@@H]1C=C(Br)Br` [deltamethrin (1%)], in data set [3] (10 min, Table 27, aqueous deltamethrin/adjuvant), the “Average % Mortality after 10 min” value is 9%. Besides, the “Average % Mortality after 15 min” value in data set [3] (15 min, Table 27, aqueous deltamethrin/adjuvant) was 33%. Moreover, the “Average % Mortality after 20 min” value in data set [3] (20 min, Table 27, aqueous deltamethrin/adjuvant) came to 67%; in data set [4] (20 min), 100%. The “Average % Mortality after 30 min” value in data set [3] (30 min, Table 27, aqueous deltamethrin/adjuvant) was 82%. In addition, the “Average % Mortality after 4 min” value in data set [4] (4 min) was found to be 27%. Also, the “Average % Mortality after 8 min” value in data set [4] (8 min) was determined as 100%. The “Average % Mortality after 12 min” value in data set [4] (12 min) was determined as 100%.

For the compound `O=[N+]([O-])NC1=NCCN1Cc1ccc(Cl)nc1` [imidacloprid], in data set [1] (setting [6]), the “% KD and Mortality 15′” value came out at 0%; the “% KD and Mortality 30′” value amounted to 0%; the “% KD and Mortality 1 h” value was determined as 20%; the “% KD and Mortality 2 h” value is on record as 80%. For the same compound, in data set [1] (setting [6]), the “% KD and Mortality 3 h” value is listed as 100%; the “% KD and Mortality 4 h” value is 100%; the “% KD and Mortality 6 h” value was determined as 100%; the “% KD and Mortality 24 h” value amounted to 100%. The “Average % Knockdown & Mortality after 2 hr” value in data set [3] (2 hr, Table 22, imidacloprid/tritylchloride in acetone, continuous exposure) is given as 0%. Besides, the “Average % Knockdown & Mortality after 2 hr” value in data set [3] (2 hr, Table 25, imidacloprid/dibutyl sebacate (DBS) in acetone) stood at 0%. The “Average % Knockdown & Mortality after 4 hr” value in data set [3] (4 hr, Table 25, imidacloprid/dibutyl sebacate (DBS) in acetone) is recorded as 0%. Moreover, the “Average % Knockdown & Mortality after 5 hr” value in data set [3] (5 hr, Table 22, imidacloprid/tritylchloride in acetone, continuous exposure) is given as 4%. Besides, in data set [3] (setting [7]), the “Average % Knockdown & Mortality after 3 hr” value is 0% and the “Average % Knockdown & Mortality after 7 hr” value stood at 0%. In data set [3] (setting [8]), the “Average % Knockdown & Mortality after 3 hr” value stood at 3% and the “Average % Knockdown & Mortality after 7 hr” value is on record as 3%. In data set [3] (setting [9]), the “Average % Knockdown & Mortality after 15 min” value was 0% and the “Average % Knockdown & Mortality after 4 hr” value came out at 7%. In data set [3] (setting [10]), the “Average % Knockdown & Mortality after 15 min” value stood at 0% and the “Average % Knockdown & Mortality after 4 hr” value was found to be 0%. In addition, in data set [3] (setting [11]), the “Average % Knockdown & Mortality after 3 hr” value was determined as 0% and the “Average % Knockdown & Mortality after 7 hr” value is given as 0%. Besides, in data set [3] (setting [12]), the “Average % Knockdown & Mortality after 2 hr” value was 0% and the “Average % Knockdown & Mortality after 4 hr” value turned out to be 0%. For the same compound, in data set [3] (setting [13]), the “Average % Knockdown & Mortality after 2 hr” value is given as 14% and the “Average % Knockdown & Mortality after 18 hr” value is listed as 17%. Also, in data set [3] (setting [14]), the “Average % Knockdown & Mortality after 4 hr” value was 0% and the “Average % Knockdown & Mortality after 6 hr” value is 7%. For the same compound, in data set [3] (setting [15]), the “Average % Knockdown & Mortality after 2 hr” value is listed as 0% and the “Average % Knockdown & Mortality after 4 hr” value is recorded as 7%. In data set [2] (setting [6]), the “% KD and Mortality 15′” value worked out at 0%; the “% KD and Mortality 30′” value is listed as 0%; the “% KD and Mortality 1 h” value was found to be 0%; the “% KD and Mortality 2 h” value stood at 10%. Besides, in data set [2] (setting [6]), the “% KD and Mortality 3 h” value is 20%; the “% KD and Mortality 4 h” value was determined as 20%; the “% KD and Mortality 6 h” value is on record as 20%; the “% KD and Mortality 24 h” value was found to be 100%.

The record behind these values is patent publication US9028856B2, “Synergistic pesticide compositions” (priority 2008, dated 2015).
